Assay in all cases: biochemical
The target of test [1] is T1, panel of 374 wild-type kinases (Homo sapiens, UniProt O14965).
T1 construct: purchased Reaction Biology Corporation
T1 sequence (O14965 1-403): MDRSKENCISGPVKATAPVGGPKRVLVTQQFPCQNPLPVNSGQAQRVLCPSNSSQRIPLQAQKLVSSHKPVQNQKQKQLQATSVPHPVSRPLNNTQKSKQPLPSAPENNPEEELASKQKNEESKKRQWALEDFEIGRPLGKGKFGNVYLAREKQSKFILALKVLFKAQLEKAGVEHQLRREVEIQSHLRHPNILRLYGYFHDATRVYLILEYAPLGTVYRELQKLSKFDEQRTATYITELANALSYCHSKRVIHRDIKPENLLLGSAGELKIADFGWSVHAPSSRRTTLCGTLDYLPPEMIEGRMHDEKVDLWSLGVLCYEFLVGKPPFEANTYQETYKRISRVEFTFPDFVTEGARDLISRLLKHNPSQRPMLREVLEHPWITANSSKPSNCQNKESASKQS
Conditions: read-out: % Enzyme Activity (relative to DMSO controls), Aurora A.

The target in test [2] is T2, panel of 374 wild-type kinases (Homo sapiens, UniProt O95819).
T2 construct: purchased Reaction Biology Corporation
T2 sequence (O95819 whole entry): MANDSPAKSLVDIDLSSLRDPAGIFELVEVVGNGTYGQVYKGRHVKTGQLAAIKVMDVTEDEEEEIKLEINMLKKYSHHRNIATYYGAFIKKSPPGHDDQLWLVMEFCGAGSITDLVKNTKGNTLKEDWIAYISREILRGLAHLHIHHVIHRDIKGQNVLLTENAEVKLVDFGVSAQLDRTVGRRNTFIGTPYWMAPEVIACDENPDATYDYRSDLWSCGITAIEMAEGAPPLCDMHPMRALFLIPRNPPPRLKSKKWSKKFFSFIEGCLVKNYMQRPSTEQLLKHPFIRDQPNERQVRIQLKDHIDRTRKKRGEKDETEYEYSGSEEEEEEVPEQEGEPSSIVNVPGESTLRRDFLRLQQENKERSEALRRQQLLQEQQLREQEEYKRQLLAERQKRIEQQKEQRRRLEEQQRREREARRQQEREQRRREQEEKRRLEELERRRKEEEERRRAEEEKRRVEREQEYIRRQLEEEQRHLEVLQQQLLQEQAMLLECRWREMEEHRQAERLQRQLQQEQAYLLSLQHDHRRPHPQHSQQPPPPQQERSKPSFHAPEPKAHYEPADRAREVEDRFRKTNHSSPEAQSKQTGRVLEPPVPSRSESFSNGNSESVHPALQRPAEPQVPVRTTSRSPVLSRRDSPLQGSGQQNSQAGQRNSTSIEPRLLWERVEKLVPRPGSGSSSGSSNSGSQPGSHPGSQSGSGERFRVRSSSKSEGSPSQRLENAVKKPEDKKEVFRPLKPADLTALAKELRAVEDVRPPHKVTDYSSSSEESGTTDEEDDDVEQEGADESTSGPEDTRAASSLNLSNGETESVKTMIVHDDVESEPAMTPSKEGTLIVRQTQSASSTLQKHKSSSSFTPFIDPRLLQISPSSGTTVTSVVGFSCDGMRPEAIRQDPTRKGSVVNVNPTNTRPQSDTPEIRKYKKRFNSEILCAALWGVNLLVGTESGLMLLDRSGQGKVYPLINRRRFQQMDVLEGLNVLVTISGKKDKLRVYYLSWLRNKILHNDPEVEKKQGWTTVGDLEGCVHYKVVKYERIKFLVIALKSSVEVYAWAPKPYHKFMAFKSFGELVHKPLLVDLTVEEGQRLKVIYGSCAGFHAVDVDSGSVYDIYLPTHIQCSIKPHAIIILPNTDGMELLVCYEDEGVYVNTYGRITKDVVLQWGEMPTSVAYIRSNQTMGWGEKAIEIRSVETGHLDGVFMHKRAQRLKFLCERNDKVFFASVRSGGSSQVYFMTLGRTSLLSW
The conditions noted are these: read-out: % Enzyme Activity (relative to DMSO controls), HGK/MAP4K4.

In test [3] the target is T3, panel of 374 wild-type kinases (Homo sapiens, UniProt P00519).
T3 construct: purchased Reaction Biology Corporation
T3 sequence (P00519 whole entry): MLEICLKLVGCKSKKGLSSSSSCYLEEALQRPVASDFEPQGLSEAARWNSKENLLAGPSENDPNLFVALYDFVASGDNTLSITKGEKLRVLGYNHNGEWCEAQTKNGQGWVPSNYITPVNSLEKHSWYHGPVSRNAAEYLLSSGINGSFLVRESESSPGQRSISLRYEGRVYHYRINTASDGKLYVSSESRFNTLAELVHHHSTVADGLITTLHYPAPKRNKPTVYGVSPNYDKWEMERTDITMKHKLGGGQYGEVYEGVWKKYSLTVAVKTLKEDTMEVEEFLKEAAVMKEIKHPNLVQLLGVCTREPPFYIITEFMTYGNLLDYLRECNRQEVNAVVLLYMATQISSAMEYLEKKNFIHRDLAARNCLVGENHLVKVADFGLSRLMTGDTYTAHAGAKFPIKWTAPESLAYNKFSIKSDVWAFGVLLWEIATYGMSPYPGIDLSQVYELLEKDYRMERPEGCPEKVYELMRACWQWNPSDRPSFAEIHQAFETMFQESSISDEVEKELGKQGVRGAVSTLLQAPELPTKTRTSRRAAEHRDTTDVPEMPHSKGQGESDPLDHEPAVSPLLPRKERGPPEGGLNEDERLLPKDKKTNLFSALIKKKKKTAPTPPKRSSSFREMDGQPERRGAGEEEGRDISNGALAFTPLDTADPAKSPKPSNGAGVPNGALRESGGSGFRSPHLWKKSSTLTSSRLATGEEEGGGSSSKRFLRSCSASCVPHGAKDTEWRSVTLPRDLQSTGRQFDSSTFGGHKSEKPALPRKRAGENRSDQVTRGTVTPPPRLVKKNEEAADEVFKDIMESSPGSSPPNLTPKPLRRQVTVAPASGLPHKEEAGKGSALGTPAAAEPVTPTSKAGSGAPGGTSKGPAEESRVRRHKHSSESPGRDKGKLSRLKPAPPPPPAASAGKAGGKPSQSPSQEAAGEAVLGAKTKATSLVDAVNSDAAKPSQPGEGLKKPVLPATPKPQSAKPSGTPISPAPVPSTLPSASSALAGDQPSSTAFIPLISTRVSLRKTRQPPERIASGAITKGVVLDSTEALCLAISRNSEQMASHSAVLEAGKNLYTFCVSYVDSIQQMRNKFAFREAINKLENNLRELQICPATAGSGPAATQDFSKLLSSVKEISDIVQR
The conditions noted are these: read-out: % Enzyme Activity (relative to DMSO controls), ABL1.

The target in test [4] is T4, panel of 374 wild-type kinases (Homo sapiens, UniProt P10398).
T4 construct: purchased Reaction Biology Corporation
T4 sequence (P10398 1-606): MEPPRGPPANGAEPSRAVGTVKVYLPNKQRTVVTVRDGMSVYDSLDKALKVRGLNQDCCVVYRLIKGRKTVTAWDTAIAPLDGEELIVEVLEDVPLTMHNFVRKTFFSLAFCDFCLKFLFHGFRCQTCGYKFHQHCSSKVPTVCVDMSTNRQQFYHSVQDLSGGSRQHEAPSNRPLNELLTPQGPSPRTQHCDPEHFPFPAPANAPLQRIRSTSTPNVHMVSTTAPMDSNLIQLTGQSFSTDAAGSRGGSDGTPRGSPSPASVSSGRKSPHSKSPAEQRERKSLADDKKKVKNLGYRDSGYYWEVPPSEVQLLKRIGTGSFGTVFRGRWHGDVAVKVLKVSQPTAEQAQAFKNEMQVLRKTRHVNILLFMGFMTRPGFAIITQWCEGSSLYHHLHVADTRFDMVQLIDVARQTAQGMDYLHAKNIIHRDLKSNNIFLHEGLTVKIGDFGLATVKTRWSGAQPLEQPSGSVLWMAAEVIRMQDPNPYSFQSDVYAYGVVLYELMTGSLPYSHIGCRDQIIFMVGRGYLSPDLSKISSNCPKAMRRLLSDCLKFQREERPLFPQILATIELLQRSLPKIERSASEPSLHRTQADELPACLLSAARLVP
The conditions noted are these: read-out: % Enzyme Activity (relative to DMSO controls), ARAF.

Test [5] concerns the target T5, panel of 374 wild-type kinases (Homo sapiens, UniProt P16234).
T5 construct: purchased Reaction Biology Corporation
The conditions noted are these: read-out: % Enzyme Activity (relative to DMSO controls), kinase PDGFRa.

In test [6] the target is T6, panel of 374 wild-type kinases (Homo sapiens, UniProt P48730).
T6 construct: purchased Reaction Biology Corporation
T6 sequence (P48730 whole entry): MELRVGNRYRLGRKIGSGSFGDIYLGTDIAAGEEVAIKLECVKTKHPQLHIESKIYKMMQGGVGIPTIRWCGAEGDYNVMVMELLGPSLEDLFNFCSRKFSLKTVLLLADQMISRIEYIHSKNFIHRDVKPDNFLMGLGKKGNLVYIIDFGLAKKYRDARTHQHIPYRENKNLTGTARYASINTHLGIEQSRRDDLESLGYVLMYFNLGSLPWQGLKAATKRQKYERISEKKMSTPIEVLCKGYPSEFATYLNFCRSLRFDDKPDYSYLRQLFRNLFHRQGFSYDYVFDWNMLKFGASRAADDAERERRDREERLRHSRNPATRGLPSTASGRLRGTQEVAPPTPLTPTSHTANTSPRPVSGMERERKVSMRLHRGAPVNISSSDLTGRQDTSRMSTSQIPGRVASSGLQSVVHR
The conditions noted are these: read-out: % Enzyme Activity (relative to DMSO controls), CK1d.

Test [7] addresses T7, panel of 374 wild-type kinases (Homo sapiens, UniProt P52564).
T7 construct: purchased Reaction Biology Corporation
T7 sequence (P52564 1-334): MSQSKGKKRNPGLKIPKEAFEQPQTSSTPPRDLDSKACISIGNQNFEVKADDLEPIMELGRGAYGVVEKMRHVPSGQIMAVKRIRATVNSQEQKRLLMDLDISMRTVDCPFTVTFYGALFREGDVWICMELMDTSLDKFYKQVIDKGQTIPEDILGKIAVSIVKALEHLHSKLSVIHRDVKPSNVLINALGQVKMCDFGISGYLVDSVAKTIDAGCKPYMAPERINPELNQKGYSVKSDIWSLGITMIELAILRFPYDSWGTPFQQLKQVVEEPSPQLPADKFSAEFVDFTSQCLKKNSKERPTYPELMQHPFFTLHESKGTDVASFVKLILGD
Conditions: read-out: % Enzyme Activity (relative to DMSO controls), MKK6.

Test [8] concerns the target T8, panel of 374 wild-type kinases (Homo sapiens, UniProt Q04759).
T8 construct: purchased Reaction Biology Corporation
Conditions: read-out: % Enzyme Activity (relative to DMSO controls), kinase PKCtheta.

For test [9], the target named is T9, panel of 374 wild-type kinases (Homo sapiens, UniProt Q86Z02).
T9 construct: purchased Reaction Biology Corporation
Conditions: read-out: % Enzyme Activity (relative to DMSO controls), HIPK1.

For test [10], the target named is T10, panel of 374 wild-type kinases (Homo sapiens, UniProt Q9UKI8).
T10 construct: purchased Reaction Biology Corporation
T10 sequence (Q9UKI8 1-766): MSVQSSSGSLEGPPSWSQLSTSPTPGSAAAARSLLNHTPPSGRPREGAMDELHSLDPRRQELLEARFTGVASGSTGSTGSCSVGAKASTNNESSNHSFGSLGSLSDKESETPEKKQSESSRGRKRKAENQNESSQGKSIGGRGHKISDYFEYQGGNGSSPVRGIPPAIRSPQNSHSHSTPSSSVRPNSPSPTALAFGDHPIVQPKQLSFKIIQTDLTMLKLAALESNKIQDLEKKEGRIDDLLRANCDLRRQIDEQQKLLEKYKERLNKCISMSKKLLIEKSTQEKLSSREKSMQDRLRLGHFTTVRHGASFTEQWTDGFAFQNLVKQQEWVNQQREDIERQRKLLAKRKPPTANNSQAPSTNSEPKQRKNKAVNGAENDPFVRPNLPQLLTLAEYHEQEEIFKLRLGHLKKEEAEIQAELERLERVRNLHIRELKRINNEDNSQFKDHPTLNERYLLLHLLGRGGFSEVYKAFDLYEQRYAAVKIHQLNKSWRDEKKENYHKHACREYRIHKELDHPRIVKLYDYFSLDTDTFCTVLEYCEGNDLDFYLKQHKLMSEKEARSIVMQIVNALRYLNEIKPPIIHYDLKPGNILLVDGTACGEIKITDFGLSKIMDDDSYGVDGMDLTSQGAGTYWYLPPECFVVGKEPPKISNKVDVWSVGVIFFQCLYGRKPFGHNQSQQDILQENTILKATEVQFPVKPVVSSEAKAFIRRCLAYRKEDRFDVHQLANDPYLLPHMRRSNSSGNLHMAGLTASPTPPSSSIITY
Conditions: read-out: % Enzyme Activity (relative to DMSO controls), kinase TLK1.

T5 sequence (P16234 24-1089): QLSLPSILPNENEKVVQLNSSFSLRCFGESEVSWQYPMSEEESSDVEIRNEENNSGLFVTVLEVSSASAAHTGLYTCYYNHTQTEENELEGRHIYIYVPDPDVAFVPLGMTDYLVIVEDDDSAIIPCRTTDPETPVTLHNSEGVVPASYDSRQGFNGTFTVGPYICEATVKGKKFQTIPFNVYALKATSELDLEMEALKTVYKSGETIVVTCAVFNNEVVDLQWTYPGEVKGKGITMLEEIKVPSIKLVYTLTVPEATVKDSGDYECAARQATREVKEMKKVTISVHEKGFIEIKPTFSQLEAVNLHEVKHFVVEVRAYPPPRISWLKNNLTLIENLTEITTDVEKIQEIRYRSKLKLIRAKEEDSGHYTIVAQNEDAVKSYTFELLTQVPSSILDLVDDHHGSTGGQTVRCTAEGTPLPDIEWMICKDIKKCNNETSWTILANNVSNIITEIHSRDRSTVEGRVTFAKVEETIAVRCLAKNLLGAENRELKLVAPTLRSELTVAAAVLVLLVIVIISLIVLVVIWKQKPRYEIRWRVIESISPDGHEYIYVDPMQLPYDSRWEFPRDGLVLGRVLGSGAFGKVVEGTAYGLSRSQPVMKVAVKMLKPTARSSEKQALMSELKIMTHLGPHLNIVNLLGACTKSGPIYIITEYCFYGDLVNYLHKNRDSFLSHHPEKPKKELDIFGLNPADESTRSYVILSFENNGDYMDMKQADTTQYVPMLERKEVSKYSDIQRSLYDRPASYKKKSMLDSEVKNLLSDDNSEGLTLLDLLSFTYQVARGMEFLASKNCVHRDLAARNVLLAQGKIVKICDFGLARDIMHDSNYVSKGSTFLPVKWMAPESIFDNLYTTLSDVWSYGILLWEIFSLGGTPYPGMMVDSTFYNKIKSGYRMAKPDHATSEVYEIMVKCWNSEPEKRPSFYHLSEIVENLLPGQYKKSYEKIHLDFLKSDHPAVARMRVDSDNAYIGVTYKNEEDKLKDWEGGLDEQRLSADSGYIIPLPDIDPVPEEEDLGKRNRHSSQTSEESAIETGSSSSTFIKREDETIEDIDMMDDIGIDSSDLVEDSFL
T8 sequence (Q04759 whole entry): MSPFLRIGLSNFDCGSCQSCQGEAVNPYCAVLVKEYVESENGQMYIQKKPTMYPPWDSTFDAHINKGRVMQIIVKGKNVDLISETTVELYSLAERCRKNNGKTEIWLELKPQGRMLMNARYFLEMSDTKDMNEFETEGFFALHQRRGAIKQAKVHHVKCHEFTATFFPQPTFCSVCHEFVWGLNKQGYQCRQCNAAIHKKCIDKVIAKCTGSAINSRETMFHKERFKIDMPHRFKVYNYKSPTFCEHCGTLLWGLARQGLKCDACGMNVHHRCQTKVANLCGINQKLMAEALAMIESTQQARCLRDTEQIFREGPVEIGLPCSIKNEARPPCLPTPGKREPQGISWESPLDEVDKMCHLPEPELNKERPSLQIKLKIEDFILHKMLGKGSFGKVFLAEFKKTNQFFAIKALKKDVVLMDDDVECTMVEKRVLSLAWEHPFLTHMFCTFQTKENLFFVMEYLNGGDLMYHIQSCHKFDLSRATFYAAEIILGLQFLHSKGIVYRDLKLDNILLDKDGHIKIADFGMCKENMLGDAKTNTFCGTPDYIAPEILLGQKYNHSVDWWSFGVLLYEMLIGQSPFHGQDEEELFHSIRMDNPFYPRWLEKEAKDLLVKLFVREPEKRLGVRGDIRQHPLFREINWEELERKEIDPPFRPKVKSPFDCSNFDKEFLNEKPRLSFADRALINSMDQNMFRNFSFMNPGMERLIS

`Cc1sc(C(=O)NC2COC2)cc1-n1cc(NC(=O)Nc2c(F)cccc2Cl)cn1` [Compound 27, 4-(4-(3-(2-chloro-6-fluorophenyl)ureido)-1H-pyrazol-1-yl)-5-methyl-N-(oxetan-3-yl)thiophene-2-carboxamide]: the remaining activity at 10 µM in test [1] (10 uM) amounted to 88.4%; in [2] (10 uM), 93.4%; in test [3] (10 uM), 102%; in test [4] (10 uM) it was 84.1%; in test [5] (10 uM) it was 114%; in [6] (10 uM), 112%. The remaining activity at 10 µM is 86.4% in test [7] (10 uM), 96.9% in test [8] (10 uM), 116% in test [9] (10 uM) and 105% in test [10] (10 uM).

Consider `O=C(Nc1cnn(-c2csc(C(=O)NC3COC3)c2)c1)Nc1c(F)cccc1Cl` [Compound 25, 4-(4-(3-(2-chloro-6-fluorophenyl)ureido)-1H-pyrazol-1-yl)-N-(oxetan-3-yl)thiophene-2-carboxamide], for which the remaining activity at 5 µM in test [1] came to 83.1%; in test [2], 90.4%; in test [3], 101%; in test [4], 94.4%; in test [5] it was 107%; in test [6], 117%. For the same compound, the remaining activity at 5 µM came to 94.4% in test [7], 94.7% in test [8], 91.7% in test [9] and 53.4% in [10].

Take `O=C(Nc1cnn(-c2csc(C(=O)NC3COC3)c2)c1)Nc1ccccc1Cl` [Compound 17, 4-(4-(3-(2-chlorophenyl)ureido)-1H-pyrazol-1-yl)-N-(oxetan-3-yl)thiophene-2-carboxamide]: the remaining activity at 5 µM in test [1] is 105%; in test [2] it was 81.1%; in test [3] it was 83.4%; in test [4] it was 95.1%; in test [5], 95.2%; in test [6], 101%. Besides, the remaining activity at 5 µM in test [7] was determined as 96.4%; in [8] it was 114%; in test [9], 96.3%; in [10] it was 105%.

The values above are taken from patent publication US20240246942A1, “KINASE INHIBITORS FOR THE TREATMENT OF NEURODEGENERATIVE DISEASES” (priority 2020, published 2024).
